The record followed here is article PMC6158189, “A pharmacological probe identifies cystathionine β-synthase as a new negative regulator for ferroptosis” (Cell Death & Disease, 2018).

Each structure is given as a SMILES string. “Also recorded” adds a separate entry of the source. A value given as a limit tells only on which side of the number the result lay.

The target of one assay is T1, hCBS Q222A (Homo sapiens, UniProt P35520, Q222A).
T1 construct: hCBS-413 (a C-terminal truncated hCBS 1–413); GST (N); made in house; host or cells: E. coli BL21
T1 sequence (P35520 1-413 Q222A): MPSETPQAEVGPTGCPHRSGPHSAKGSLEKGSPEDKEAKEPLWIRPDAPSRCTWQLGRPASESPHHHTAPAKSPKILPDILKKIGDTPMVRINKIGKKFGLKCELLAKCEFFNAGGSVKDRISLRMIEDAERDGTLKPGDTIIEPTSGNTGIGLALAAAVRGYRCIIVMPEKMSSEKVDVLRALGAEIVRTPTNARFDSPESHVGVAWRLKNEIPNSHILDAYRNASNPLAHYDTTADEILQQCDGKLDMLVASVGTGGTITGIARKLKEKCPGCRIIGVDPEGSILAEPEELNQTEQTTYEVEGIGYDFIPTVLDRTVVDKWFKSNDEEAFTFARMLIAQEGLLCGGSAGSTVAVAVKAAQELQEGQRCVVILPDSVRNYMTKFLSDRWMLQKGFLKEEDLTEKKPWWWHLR
The assay is described as follows: purified hCBS mutant enzyme assay. Format: biochemical. As to the method: (§1) The IC50 values of CH004 for hCBS-413, hCBS-413 mutants, hCBS-FL, hCSE or hDDC were determined according to the standard assay conditions otherwise indicated.
Figure S6. […] HEK293T cells stably expressing CBS Q222A mutant (293T-CBS Q222A) were treated with 0 (DMSO control), 5 or 10 μM CH004 for 8 h before staining with the AzMC to detect H2S. The overlaid images of fluorescent and bright-field images are shown in the left panel, and the corresponding fluorescent (blue, H2S) and bright-field images are shown in the middle and right panels, respectively. Bars: 50 μm. [picture] Figure S7. The CH004-insensitive CBS Q222A mutant can be inhibited by HA. (A) HEK293T cells stably expressing CBS Q222A mutant (293T-CBS Q222A) were treated with 0 (DMSO, control), 5 or 10 μM of CH004, 1 mM or 2 mM of HA for 8 h before staining with the AzMC to detect H2S. The overlaid images of fluorescent and bright-field images are shown in the upper panel, and the corresponding fluorescent (blue, H2S) and bright-field images are shown in the middle and lower panels, respectively. Bars: 50 μm. (B) Quantification of the mean fluorescent density of H2S (blue). The intensity of blue light of the fluorescent images was quantified by ImageJ software, quantified and deduced the background signal in HEK293T-EV cells (Supplementary Figure S3B), normalized by the corresponding cell area and expressed as percentages of control (DMSO group, 100%). Means ± SDs (n=3). One-way ANOVA with Bonferroni post-tests was used for the analysis. *, p< 0.05; **, p< 0.01; n.s. no significance. The images are one representative from three independent experiments. (C) The inhibitory effect of 1 mM HA on purified CBS Q222A mutant. The assay was performed using 60 mM Cys and 1.2 μM CBS-413 Q222A mutant. The data were expressed as percentages of control (DMSO, 100%). Means ± SDs (n=4). [picture]
Table S2. Inhibitory effects of CH004 on hCBS WT and mutants.

In assay [1] the test system is HepG2 cells. The assay is described as follows: cellular cystathionine by LC/ESI-MS/MS. The settings on record: 8 h, 100 μM Hcys and 100 μM Ser. Format: cell-based, human. How it is done:
The effect of CH004 on the level of CTH in HepG2 cells was determined by a liquid chromatography-tandem mass spectrometry (LC/ESI-MS/MS). We followed a condition, which was previously established with LC/ESI-MS/MS[56], for quantification of CTH. […] We selected the 223.1 → 88.1 transition for the quantitative method. Briefly, after the incubation with the compounds for 8 h in the presence of 100 μM Hcys and 100 μM Ser, the HepG2 cells were lysed with liquid nitrogen. 10 μl supernatant was injected to the Ultra Performance Liquid Chromatographic system on a Zorbax XDB C18 reverse phase column (4.6 × 150 mm, temperature-controlled at 10 °C), and eluted isogradiently with a solution mixed from acetonitrile (in the presence of 0.1% formic acid) and water (0.1% formic acid) (2:98, v/v) at a flow rate of 0.4 ml/min in a diode array detector (Agilent G4212A). The Agilent 6470 UHPLC-QqQ/MS system composes of a chomatographic system (Agilent 1260 Infinity) and a Triple Quad mass spectrometer fitted with an ESI source. Data was acquired in the MRM mode using Agilent MassHunter Workstation Data Acquisition Software (revision B.04).
Figure S14. […] All images are representative of three independent experiments. […] Means ± SDs (n=2).

The subject of assay [2] is HepG2 cells. In words: intracellular total glutathione (Cayman kit). The assay is classed as cell-based, human. The following applies: 24 h. How it is done:
Then, the cells from two wells were collected by cell scraper and washed once with PBS. The intracellular total glutathione (GSH) was measured with a commercial glutathione assay kit under the standard protocol (Cayman Chemical, Ann Arbor, USA). […] Supernatant was then collected after centrifugation at 12,000 × g for 15 min at 4 °C before the deproteination by adding an equal volume of 2.5 M metaphosphoric (MPA, Sigma). After the incubation for 5 min, the mixture was centrifuged at 3000 × g for 5 min. The supernatant was collected and added appropriate amount of 4 M triethanolamine (Sigma, 50 μl per 1 ml of the supernatant). The deproteinated and neutralized supernatant was used for the determination of the amount of total GSH by incubating with the assay reagents (from the kit) in a 96-well plate. After an incubation of 25 min, the absorbance at 405 nm was recorded and converted into the amount of GSH with a standard curve.

The target of assay [3] is T2, human dopa decarboxylase (hDDC) (Homo sapiens, UniProt P20711).
T2 construct: made in house
In words: purified hDDC enzyme assay. The assay is classed as biochemical. How it is done: as §1

T2 sequence (P20711 whole entry): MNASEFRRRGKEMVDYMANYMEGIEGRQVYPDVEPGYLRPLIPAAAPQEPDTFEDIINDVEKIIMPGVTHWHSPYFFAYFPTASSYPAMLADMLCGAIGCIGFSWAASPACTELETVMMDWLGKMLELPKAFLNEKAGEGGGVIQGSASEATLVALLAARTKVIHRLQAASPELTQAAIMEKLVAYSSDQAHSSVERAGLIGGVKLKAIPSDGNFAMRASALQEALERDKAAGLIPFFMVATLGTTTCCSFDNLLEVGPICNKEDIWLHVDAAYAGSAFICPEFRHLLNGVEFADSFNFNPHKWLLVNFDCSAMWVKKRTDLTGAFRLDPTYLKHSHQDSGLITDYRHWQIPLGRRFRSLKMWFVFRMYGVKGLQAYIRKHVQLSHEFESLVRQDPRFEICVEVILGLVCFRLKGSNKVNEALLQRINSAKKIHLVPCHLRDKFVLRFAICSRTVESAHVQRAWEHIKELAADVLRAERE

In the case of `Cn1nc(Cc2ccccc2)nc2c(=O)n(C)c(=O)nc1-2` [CH004, 3-benzyl-1,6-dimethylpyrimido[5,4-e][1,2,4]triazine-5,7(1H,6H)-dione], at hCBS Q222A, the IC50 (in general, the midpoint of a concentration-inhibition curve) amounted to 27.6 ± 0.9 µM and the “IC50 fold to WT, Q222A” value is given as 23. The “level of cystathionine (CTH)” value in the assay with HepG2 cells [1] is “dose-dependently inhibits; also recorded: largely reduced”. In addition, in the assay with HepG2 cells [2], the “intracellular pool of glutathione (GSH)” value is given as “dose-dependently deplete”. Moreover, the “Fold selectivity hDDC vs hCBS-413” value in assay [3] (IC50 of hDDC / IC50 of hCBS-413) was > 400 (> 400) fold. In assay [3] (standard conditions), the IC50 was more than 400 µM.
